Experiment [1] addresses T1, SARS-CoV-2 3CLpro (Severe acute respiratory syndrome coronavirus 2, UniProt P0DTD1). The experiment can be described thus: biochemical. The experiment is classed as biochemical.
Experiment [2] has as its target SARS-CoV-2 3CLpro / HEK293T lysate (Severe acute respiratory syndrome coronavirus 2, UniProt P0DTD1). The experiment is classed as binding.
In experiment [3] the target is T1, SARS-CoV-2 3CLpro. To be noted: read-out: KI.
The target in experiment [4] is T1, SARS-CoV-2 3CLpro.
The mark [5] stands for this setting: read-out: Inhibition (%) @10 μM.
[6] abbreviates: 6.25 µM, read-out: inhibition ratio (%).
Setting [7] is: 25 µM, read-out: inhibition ratio (%).
Setting [8] is: 50 µM, read-out: inhibition ratio (%).

Where “and” joins values, the source holds several entries; their conditions need not be identical. Equal values may be shown once. Read-outs that look alike come from different tables or passages of the source.

Consider `O=c1cc(-c2ccc(O)cc2)oc2cc(O)cc(O)c12` [Apigenin], for which the inhibition at 10 µM at SARS-CoV-2 3CLpro [1] (setting [5]) was -1%.
Take `COc1ccc(-c2cc(=O)c3c(O)cc(O)cc3o2)cc1O` [Diosmetin]: the inhibition at 10 µM on SARS-CoV-2 3CLpro [1] (setting [5]) is 11.3%.
On to `O=C1C[C@@H](c2ccc(O)c(O)c2)Oc2cc(O)cc(O)c21` [Eriodictyol], for which, on SARS-CoV-2 3CLpro [1] (setting [5]), the inhibition at 10 µM amounted to 34.5%.
Consider `COc1ccc(-c2coc3cc(O)ccc3c2=O)cc1` [Formononetin], for which the inhibition at 10 µM at SARS-CoV-2 3CLpro [1] (setting [5]) came out at 16%.
As to `O=c1c(-c2ccc(O)cc2)coc2cc(O)cc(O)c12` [Genistein], the inhibition at 10 µM on SARS-CoV-2 3CLpro [1] (setting [5]) was determined as 15%.
For the compound `O=c1c(-c2ccc(O)cc2)coc2cc(O[C@@H]3O[C@H](CO)[C@@H](O)[C@H](O)[C@H]3O)cc(O)c12` [Genistin], the inhibition at 10 µM at SARS-CoV-2 3CLpro [1] (setting [5]) was determined as 25.5%.
Regarding `COc1ccc([C@@H]2CC(=O)c3c(O)cc(O)cc3O2)cc1O` [Hesperetin], the inhibition at 10 µM at SARS-CoV-2 3CLpro [1] (setting [5]) is 13.8%.
As for `COc1cc(-c2oc3cc(O)cc(O)c3c(=O)c2O)ccc1O` [Isorhamnetin], the inhibition at 10 µM on SARS-CoV-2 3CLpro [1] (setting [5]) was -2.6%.
As to `COc1ccc(-c2oc3cc(O)cc(O)c3c(=O)c2O)cc1` [Kaempferide], the inhibition at 10 µM on SARS-CoV-2 3CLpro [1] (setting [5]) came out at 8.1%.
For `O=c1cc(-c2ccc(O)c(O)c2)oc2cc(O)cc(O)c12` [Luteolin], the “Inhibition (%) @10 μM” value on SARS-CoV-2 3CLpro [1] (10 µM) was -4.1%.
As for `O=c1c(O)c(-c2ccc(O)c(O)c2)oc2cc(O)cc(O)c12` [Quercetin], the inhibition at 10 µM at SARS-CoV-2 3CLpro [1] (setting [5]) stood at 41.3%.
As for `O=c1c(-c2ccc(O[C@@H]3O[C@H](CO)[C@@H](O)[C@H](O)[C@H]3O)cc2)coc2cc(O)cc(O)c12` [Sophoricoside], the inhibition at 10 µM on SARS-CoV-2 3CLpro [1] (setting [5]) stood at 10%.
With `O=C1c2c(O)cc(O)cc2OC(c2ccc(O)c(O)c2)C1O` (stereo not shown) [Taxifolin], the inhibition at 10 µM on SARS-CoV-2 3CLpro [1] (setting [5]) stood at 28%.
What is called IC50 is the point on the concentration scale where inhibition reaches its midpoint. The compound `COc1cc(O)c2c(=O)c(O)c(-c3cc(O)c(O)c(O)c3)oc2c1` [compound 3, 7-O-methyl myricetin] showed an IC50 on SARS-CoV-2 3CLpro [1] (IC50 (µM)) of 0.31 µM. Moreover, on SARS-CoV-2 3CLpro [1] (read-out: inhibition ratio (%)), the inhibition at 0.15625 µM was found to be 28.3%, the inhibition at 0.3125 µM is 43.1%, the inhibition at 5 µM stood at 96.8% and the inhibition at 10 µM was determined as 98.5%. Further, the inhibition at […] on SARS-CoV-2 3CLpro [1] (read-out: inhibition ratio (%)) was 89.4% and 96.2%.
Consider `O=c1c(O)c(-c2cc(O)c(O)c(O)c2)oc2cc(OCC3CCCC3)cc(O)c12` [compound 6, 7-O-cyclopentylmethyl-myricetin], for which the IC50 on SARS-CoV-2 3CLpro [1] (read-out: IC50) was 2.23 µM and 2.28 µM and 2.8 µM and 2.48 µM.
In the case of `COc1cc(O)c2c(c1)O[C@H](c1cc(O)c(O)c(O)c1)[C@@H](O)C2=O` [compound 7, 7-O-methyl dihydromyricetin], on SARS-CoV-2 3CLpro [1] (IC50 (µM)), the IC50 was 270 nM (2×) and 240 nM. Moreover, at SARS-CoV-2 3CLpro [1] (read-out: inhibition ratio (%)), the inhibition at 0.0488281 µM was 8.15%, the inhibition at 0.0976562 µM was determined as 25.7%, the inhibition at 0.390625 µM is 54.6% and the inhibition at 0.78125 µM was 84.2%. Further, on SARS-CoV-2 3CLpro [1] (read-out: inhibition ratio (%)), the inhibition at 1.5625 µM was 97.1%, the inhibition at 3.125 µM was 94.4%, the inhibition at 6.25 µM is 98.2% and the inhibition at 25 µM is 94.6%. Further, at SARS-CoV-2 3CLpro [1] (read-out: inhibition ratio (%)), the inhibition at 50 µM worked out at 95.6%; the inhibition at […] was 36.2% and 99.3%.
For `O=c1c(O)c(-c2cc(O)c(O)c(O)c2)oc2cc(OP(=O)(Oc3ccccc3)Oc3ccccc3)cc(O)c12` [compound 9], the inhibition at 0.78125 µM on SARS-CoV-2 3CLpro [1] (0.78125 µM, read-out: inhibition ratio (%)) amounted to 10.1%. Moreover, on SARS-CoV-2 3CLpro [1] (3.125 µM, read-out: inhibition ratio (%)), the inhibition at 3.125 µM stood at 57.7%. Besides, the inhibition at 6.25 µM on SARS-CoV-2 3CLpro [1] (setting [6]) was determined as 78.1%. In addition, the inhibition at 25 µM on SARS-CoV-2 3CLpro [1] (setting [7]) came out at 96%. At SARS-CoV-2 3CLpro [1] (setting [8]), the inhibition at 50 µM amounted to 99.4%.
In the case of `O=C1c2c(O)cc(OP(=O)(Oc3ccccc3)Oc3ccccc3)cc2O[C@H](c2cc(O)c(O)c(O)c2)[C@H]1O` [compound 10], the inhibition at 6.25 µM at SARS-CoV-2 3CLpro [1] (setting [6]) was 81.5%. In addition, the inhibition at 25 µM at SARS-CoV-2 3CLpro [1] (setting [7]) was found to be 98.9%. The inhibition at 50 µM at SARS-CoV-2 3CLpro [1] (setting [8]) amounted to 98.6%. Moreover, the inhibition at 100 µM at SARS-CoV-2 3CLpro [1] (100 µM, read-out: inhibition ratio (%)) was determined as 99.4%. In addition, at SARS-CoV-2 3CLpro [1] (200 µM, read-out: inhibition ratio (%)), the inhibition at 200 µM stood at 99.6%.
In the case of `O=C1c2c(O)cc(O)cc2O[C@H](c2cc(O)c(O)c(O)c2)[C@H]1O` [dihydromyricetin], the “Inhibition (%) @10 μM” value on SARS-CoV-2 3CLpro [1] (10 µM) was greater than 90%. Further, the inhibition at 10 µM on SARS-CoV-2 3CLpro [1] (setting [5]) turned out to be 93.8%. On SARS-CoV-2 3CLpro [1] (read-out: inhibition ratio (%)), the inhibition at 0.3125 µM stood at 13%, the inhibition at 0.390625 µM came out at 15%, the inhibition at 0.625 µM was 24.1% and the inhibition at 0.78125 µM came to 39.3%. Further, on SARS-CoV-2 3CLpro [1] (read-out: inhibition ratio (%)), the inhibition at 1.5625 µM came out at 58.9%, the inhibition at 3.125 µM turned out to be 82.7%, the inhibition at 5 µM worked out at 87.5% and the inhibition at 6.25 µM stood at 95%. On SARS-CoV-2 3CLpro [1] (read-out: inhibition ratio (%)), the inhibition at 10 µM came out at 97.8%; the inhibition at 20 µM was determined as 99.5%; the inhibition at 40 µM came to 98.8%; the inhibition at […] is 45.2% and 85% and 98.5%.
Regarding `O=c1c(O)c(-c2cc(O)c(O)c(O)c2)oc2cc(O)cc(O)c12` [myricetin, 3,5,7,3′,4′,5′-hexahydroxyflavone], in experiment [2], the “fluorescent labeling in mixture of HEK293T lysate and recombinant 3CLpro” value is on record as “only significantly reduced the fluorescent labeling of the protease”; the “fluorescent labeling of recombinant SARS-CoV-2 3CLpro by maleimide probe” value is recorded as “completely block”. Also, the KI (inactivation) at SARS-CoV-2 3CLpro [3] is 16900 nM and 15200 nM and 15000 nM. Moreover, the “increase in molecular weight of the protease (covalent labeling)” value on SARS-CoV-2 3CLpro [4] is 316 Da. Moreover, the “Inhibition (%) @10 μM” value on SARS-CoV-2 3CLpro [1] (10 µM) was greater than 90%. The inhibition at 10 µM at SARS-CoV-2 3CLpro [1] (setting [5]) was 97.6%. Also, on SARS-CoV-2 3CLpro [1] (read-out: inhibition ratio (%)), the inhibition at 0.3125 µM was 27.5%, the inhibition at 0.625 µM came out at 44.1%, the inhibition at 5 µM stood at 96.1% and the inhibition at 10 µM came to 98.2%. For the same compound, on SARS-CoV-2 3CLpro [1] (read-out: inhibition ratio (%)), the inhibition at 20 µM was 97.9%; the inhibition at 40 µM is 98.8%; the inhibition at […] is 65.6% and 85.5%.
Take (+)-Catechin: the “Inhibition (%) @10 μM” value on SARS-CoV-2 3CLpro [1] is reported as 14.0%.
Same read-out and setting: in the case of Biochanin A it was 5.0%.

The record behind these values is publication PMC8206078, “Identification of pyrogallol as a warhead in design of covalent inhibitors for the SARS-CoV-2 3CL protease” (Nature Communications, 2021).
